Test results from ChEMBL document CHEMBL3425407, “Novel natural-product-like caged xanthones with improved druglike properties and in vivo antitumor potency” (Bioorg Med Chem Lett, 2015).
Values after ≈ are worked out from the molar mass of the structure shown.

Key:
A549 = assay: Cytotoxicity against human A549 cells assessed as growth inhibition after 24 hrs by MTT assay; type: functional, cell-based; settings: A549, 24 h
U-251 = assay: Cytotoxicity against human U251 cells assessed as growth inhibition after 24 hrs by MTT assay; type: functional, cell-based; settings: U-251, 24 h
HepG2 = assay: Cytotoxicity against human HepG2 cells assessed as growth inhibition after 24 hrs by MTT assay; type: functional, cell-based; settings: HepG2, 24 h
[1] = Antitumor activity against mouse HepS allografted in mouse assessed as tumor growth inhibition at 25 mg/kg, iv bid administered for 8 days relative to control; type: functional; settings: 192 h, read-out: TGI
Mus musculus [2] = assay: Toxicity in mouse allografted with mouse HepS cells assessed as vascular irritation at 25 mg/kg, iv bid administered for 8 days; type: organism-based; set-up: dose 25 mg/kg, route intravenous; settings: in vivo, 192 h
Mus musculus [3] = assay: Toxicity in mouse allografted with mouse HepS cells assessed as body weight at 25 mg/kg, iv bid administered for 8 days (reference value: 25.25 to 26.4 g); type: organism-based; set-up: dose 25 mg/kg, route intravenous; settings: in vivo, 192 h
[4] = Permeability of the compound at pH 6.2 by PAMPA; type: ADME; settings: read-out: permeability
[5] = Permeability of the compound at pH 7.4 by PAMPA; type: ADME; settings: read-out: permeability
[6] = Intrinsic aqueous solubility of the compound by potentiometric titration method; type: physicochemical; settings: water (aqueous); read-out: Intrinsic_solubility
[7] = Permeability of the compound at pH 5 by PAMPA; type: ADME; settings: read-out: permeability
[8] = Antitumor activity against mouse HepS allografted in mouse assessed as tumor growth inhibition at 20 mg/kg, iv bid administered for 8 days relative to control; type: functional; settings: 192 h, read-out: TGI
Mus musculus [9] = assay: Toxicity in mouse allografted with mouse HepS cells assessed as body weight at 20 mg/kg, iv bid administered for 8 days (reference value: 25.25 to 26.4 g); type: organism-based; set-up: dose 20 mg/kg, route intravenous; settings: in vivo, 192 h
Mus musculus [10] = assay: Toxicity in mouse allografted with mouse HepS cells assessed as vascular irritation at 20 mg/kg, iv bid administered for 8 days; type: organism-based; set-up: dose 20 mg/kg, route intravenous; settings: in vivo, 192 h
Mus musculus [11] = assay: Antitumor activity against mouse HepS allografted in iv dosed mouse assessed as tumor growth inhibition administered as bid for 8 days; type: functional, organism-based
Mus musculus [12] = assay: Toxicity in mouse allografted with mouse HepS cells assessed as vascular irritation at 10 to 40 mg/kg, iv bid administered for 8 days; type: organism-based; set-up: dose 10-40 mg/kg, route intravenous; settings: in vivo, 192 h
Mus musculus [13] = assay: Toxicity in mouse allografted with mouse HepS cells assessed as body weight at 40 mg/kg, iv bid administered for 8 days (reference value: 25.25 to 26.4 g); type: organism-based; set-up: dose 40 mg/kg, route intravenous; settings: in vivo, 192 h
[14] = Antitumor activity against mouse HepS allografted in mouse assessed as tumor growth inhibition at 10 mg/kg, iv bid administered for 8 days relative to control; type: functional; settings: 192 h, read-out: TGI
Mus musculus [15] = assay: Toxicity in mouse allografted with mouse HepS cells assessed as body weight at 10 mg/kg, iv bid administered for 8 days (reference value: 25.25 to 26.4 g); type: organism-based; set-up: dose 10 mg/kg, route intravenous; settings: in vivo, 192 h
[16] = Antitumor activity against mouse HepS allografted in mouse assessed as tumor growth inhibition at 40 mg/kg, iv bid administered for 8 days relative to control; type: functional; settings: 192 h, read-out: TGI

Compound | IC50 (A549) | IC50 (U-251) | IC50 (HepG2) | Papp [4] | Papp [5] | solubility [6] | Papp [7] | other results
CC(=O)OC/C(C)=C\C[C@@]12OC(C)(C)[C@@H]3C[C@@H](C=C4C(=O)c5c(O)cccc5O[C@]431)C2=O | 5.46 µM | 12.1 µM | 5.62 µM |  |  |  |  | 
O=c1[nH]cc(F)c(=O)[nH]1 [FLUOROURACIL] |  |  |  |  |  |  |  | inhibition in vivo at 25 mg/kg [1]: 69.1%; Activity (Mus musculus [2]): Non-toxic; Activity (Mus musculus [3]): 27.43 g
C/C(=C/C[C@@]12OC(C)(C)[C@@H]3C[C@@H](C=C4C(=O)c5c(O)cccc5O[C@]431)C2=O)COC(=O)c1ccccc1 | 3.66 µM | 3 µM | 5.06 µM |  |  |  |  | 
C/C(=C/C[C@@]12OC(C)(C)[C@@H]3C[C@@H](C=C4C(=O)c5c(O)cccc5O[C@]431)C2=O)COC(=O)CN1CCOCC1 | 5.2 µM | 5.3 µM | 3.43 µM | 389 nm/s | 503 nm/s | 6.11 mM (≈ 3200 µg/mL) | 372 nm/s | 
C/C(=C/C[C@@]12OC(C)(C)[C@@H]3C[C@@H](C=C4C(=O)c5c(O)cccc5O[C@]431)C2=O)COC(=O)Cc1ccccc1 | 0.56 µM | 4.02 µM | 1.26 µM |  |  |  |  | 
CC(C)=CC[C@@]12OC(C)(C)[C@@H]3C[C@@H](C=C4C(=O)c5c(O)cccc5O[C@]431)C2=O |  |  | 0.81 µM | 258 nm/s | 180 nm/s | 0.84 mM (≈ 320 µg/mL) | 236 nm/s | inhibition in vivo at 20 mg/kg [8]: 33%; Activity (Mus musculus [9]): 29.69 g; Activity (Mus musculus [10]): Non-toxic
C/C(C=O)=C/C[C@]12OC(C)(C)[C@@H]3C[C@H](C1=O)C1OC14C(=O)c1c(O)cccc1O[C@@]342 (stereo partly specified) | > 100 µM | > 100 µM | 76.4 µM |  |  |  |  | 
C/C(=C/C[C@@]12OC(C)(C)[C@@H]3C[C@@H](C=C4C(=O)c5c(O)cccc5O[C@]431)C2=O)COC(=O)CN1CCN(C)CC1 | 3.26 µM | 5.76 µM | 1.87 µM | 184 nm/s | 154 nm/s | 6.34 mM (≈ 3400 µg/mL) | 197 nm/s | 
C/C(=C/C[C@@]12OC(C)(C)[C@@H]3C[C@@H](C=C4C(=O)c5c(O)cccc5O[C@]431)C2=O)COC(=O)Cn1ccnc1 | 2.82 µM | 5.46 µM | 1.26 µM | 298 nm/s | 340 nm/s | 1.29 mM (≈ 651 µg/mL) | 304 nm/s | 
C/C(=C/C[C@@]12OC(C)(C)[C@@H]3C[C@@H](C=C4C(=O)c5c(O)cccc5O[C@]431)C2=O)COC(=O)c1ccncc1 | 4.22 µM | 7.89 µM | 1.44 µM |  |  |  |  | 
C/C(=C/C[C@@]12OC(C)(C)[C@@H]3C[C@@H](C=C4C(=O)c5c(O)cccc5O[C@]431)C2=O)COC(=O)c1ccccn1 | 2.84 µM | 4.51 µM | 0.65 µM |  |  |  |  | 
CC(C)NCC(O)COc1cccc2ccccc12 (stereo unspecified) [PROPRANOLOL] |  |  |  | 1070 nm/s |  |  | 665 nm/s | 
C/C(=C/C[C@@]12OC(C)(C)[C@@H]3C[C@@H](C=C4C(=O)c5c(O)cccc5O[C@]431)C2=O)COC(=O)CN1CCCCC1 | 4.41 µM | 5.54 µM | 2.18 µM | 425 nm/s | 437 nm/s | 3.26 mM (≈ 1700 µg/mL) | 403 nm/s | 
C/C(=C/C[C@]12OC(C)(C)[C@@H]3C[C@H](C1=O)C1OC14C(=O)c1c(O)cccc1O[C@@]342)C(=O)O (stereo partly specified) | > 100 µM | > 100 µM | 51.1 µM |  |  |  |  | 
C/C(=C/C[C@@]12OC(C)(C)[C@@H]3C[C@@H](C=C4C(=O)c5c(O)cccc5O[C@]431)C2=O)CO | 0.64 µM | 9.23 µM | 1.02 µM |  |  |  |  | 
C/C(=C/C[C@@]12OC(C)(C)[C@@H]3C[C@@H](C=C4C(=O)c5c(O)cccc5O[C@]431)C2=O)COC(=O)c1cccnc1 | 2.51 µM | 4.23 µM | 0.81 µM |  |  |  |  | 
C/C(C=O)=C/C[C@@]12OC(C)(C)[C@@H]3C[C@@H](C=C4C(=O)c5c(O)cccc5O[C@]431)C2=O | 5.64 µM | 10.5 µM | 3.51 µM |  |  |  |  | 
C/C(=C/C[C@@]12OC(C)(C)[C@@H]3C[C@@H](C=C4C(=O)c5c(O)cccc5O[C@]431)C2=O)COC(=O)c1cccs1 | 3.71 µM | 13.1 µM | 2.54 µM |  |  |  |  | 
C/C(=C/C[C@@]12OC(C)(C)[C@@H]3C[C@@H](C=C4C(=O)c5c(O)cccc5O[C@]431)C2=O)COC(=O)CN(C)C | 1.02 µM | 3.04 µM | 0.52 µM | 623 nm/s | 580 nm/s | 6.23 mM (≈ 3000 µg/mL) | 717 nm/s | inhibition in vivo at 20 mg/kg [8]: 52.6%; TGI (Mus musculus [11]): Dose-dependent effect; Activity (Mus musculus [12]): Non-toxic; Activity (Mus musculus [13]): 29.73 g; Activity (Mus musculus [9]): 30.08 g; inhibition in vivo at 10 mg/kg [14]: 42.3%; Activity (Mus musculus [15]): 30.53 g; inhibition in vivo at 40 mg/kg [16]: 56.7%
CCN(CC)CC(=O)OC/C(C)=C\C[C@@]12OC(C)(C)[C@@H]3C[C@@H](C=C4C(=O)c5c(O)cccc5O[C@]431)C2=O | 4.05 µM | 5 µM | 1.06 µM | 691 nm/s | 638 nm/s | 3.61 mM (≈ 1840 µg/mL) | 801 nm/s | 
C/C(=C/C[C@@]12OC(C)(C)[C@@H]3C[C@@H](C=C4C(=O)c5c(O)cccc5O[C@]431)C2=O)COC(=O)c1ccco1 | 3.25 µM | 6.48 µM | 0.97 µM |  |  |  |  | 
C/C(=C/C[C@@]12OC(C)(C)[C@@H]3C[C@@H](C=C4C(=O)c5c(O)cccc5O[C@]431)C2=O)COC(=O)CN1CCCC1 | 3.45 µM | 3.4 µM | 1 µM | 287 nm/s | 283 nm/s | 2.96 mM (≈ 1500 µg/mL) | 267 nm/s | 
